Source: BindingDB's records for doi:10.1021/jm960124f (1996)

molecular target: Aldo-keto reductase family 1 member A1 (Bos taurus); assay: Evaluated for inhibition of Aldehyde reductase 1

| IC50 | Compound |
| --- | --- |
| 156 µM | O=C(O)Cn1nc2c(cc1=O)CCc1ccccc1-2 [(3-Oxo-5,6-dihydro-3H-benzo[h]cinnolin-2-yl)-acetic acid] |
| 92.6 µM | O=C(O)CCCn1nc2c(cc1=O)CCc1ccccc1-2 [4-(3-Oxo-5,6-dihydro-3H-benzo[h]cinnolin-2-yl)-butyric acid] |
| 295 µM | Cc1cc(C)c2c(c1)-c1nn(CC(=O)O)c(=O)cc1CC2 [(7,9-Dimethyl-3-oxo-5,6-dihydro-3H-benzo[h]cinnolin-2-yl)-acetic acid] |
| 107 µM | O=C(O)Cn1nc2c(cc1=O)Cc1ccccc1-2 [(3-Oxo-3,5-dihydro-indeno[1,2-c]pyridazin-2-yl)-acetic acid] |
| 136 µM | O=C(O)Cn1nc2c(c(C(=O)O)c1=O)Cc1ccccc1-2 [2-Carboxymethyl-3-oxo-3,5-dihydro-2H-indeno[1,2-c]pyridazine-4-carboxylic acid] |
| 289 µM | Cc1cc(C)c2c(c1)-c1nn(CCC(=O)O)c(=O)cc1CC2 [3-(7,9-Dimethyl-3-oxo-5,6-dihydro-3H-benzo[h]cinnolin-2-yl)-propionic acid] |
| 161 µM | O=C(O)Cn1nc2c(c(C(=O)O)c1=O)CCc1ccccc1-2 [2-Carboxymethyl-3-oxo-2,3,5,6-tetrahydro-benzo[h]cinnoline-4-carboxylic acid] |
